In PubChem BioAssay AID328 (DTP/NCI, 2004):
Several values for one entry are separate records, joined by “and”; a condition that tells them apart may be missing. Equal entries are not always repeated. Toxic doses and inconclusive results are not listed.

Test system: BDF1 mice, P388 leukemia ip, median survival T/C
Experiment: NCI In Vivo Anticancer Drug Screen. Data for tumor model P388 Leukemia (intraperitoneal) in B6D2F1 (BDF1) mice
Conditions: endpoint: median survival time, higher = longer survival
Method in brief: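 T/C = treated-group survival ÷ vehicle-control survival; tumour transplanted into mice before dosing.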

[1] = dose: 50.0 mg/kg/injection, schedule: Q01DX009 (ip), vehicle: saline with Tween-80
[2] = dose: 100.0 mg/kg/injection, schedule: Q04DX003 (ip), vehicle: saline sonified
[3] = dose: 100.0 mg/kg/injection, schedule: Q04DX003 (ip), vehicle: Klucel (hydroxypropylcellulose) (HPC)
[4] = dose: 200.0 mg/kg/injection, schedule: Q04DX003 (ip), vehicle: Klucel (hydroxypropylcellulose) (HPC)
[5] = dose: 100.0 mg/kg/injection, schedule: Q04DX003 (ip), vehicle: saline with Tween-80
[6] = dose: 200.0 mg/kg/injection, schedule: Q04DX003 (ip), vehicle: saline with Tween-80
[7] = dose: 400.0 mg/kg/injection, schedule: Q04DX003 (ip), vehicle: saline with Tween-80
[8] = dose: 100.0 mg/kg/injection, schedule: Q01DX009 (ip), vehicle: saline with Tween-80
[9] = dose: 100.0 mg/kg/injection, schedule: Q04DX003 (ip), vehicle: saline
[10] = dose: 200.0 mg/kg/injection, schedule: Q01DX009 (ip), vehicle: saline with Tween-80
[11] = dose: 200.0 mg/kg/injection, schedule: Q04DX003 (ip), vehicle: saline
[12] = dose: 50.0 mg/kg/injection, schedule: Q01DX009 (ip), vehicle: Klucel (hydroxypropylcellulose) (HPC)
[13] = dose: 100.0 mg/kg/injection, schedule: Q01DX009 (ip), vehicle: Klucel (hydroxypropylcellulose) (HPC)

SMILES: OC(c1cc(C23CC4CC(CC(C4)C2)C3)nc2c(Cl)cc(Cl)cc12)C1CCCCN1 (stereo unspecified)
- T/C (dose: 12.5 mg/kg/injection, schedule: Q01DX009 (ip), vehicle: saline with Tween-80): 88 % of control
- T/C (dose: 25.0 mg/kg/injection, schedule: Q01DX009 (ip), vehicle: saline with Tween-80): 90 % of control
- T/C [1]: 89 % of control and 97 % of control

SMILES: COc1cc2c(cc1OC)C(CNC(=O)/C=C/c1ccccc1)C2 (stereo unspecified)
- T/C (dose: 100.0 mg/kg/injection, schedule: Q01DX001 (ip), vehicle: Klucel (hydroxypropylcellulose) (HPC)): 115 % of control
- T/C (dose: 200.0 mg/kg/injection, schedule: Q01DX001 (ip), vehicle: Klucel (hydroxypropylcellulose) (HPC)): 110 % of control
- T/C (dose: 400.0 mg/kg/injection, schedule: Q01DX001 (ip), vehicle: Klucel (hydroxypropylcellulose) (HPC)): 120 % of control

SMILES: O=C(COc1ccc(Cl)cc1)C1CSc2ccc(Br)cc21 (stereo unspecified)
- T/C [2]: 90 % of control
- T/C (dose: 200.0 mg/kg/injection, schedule: Q04DX003 (ip), vehicle: saline sonified): 95 % of control
- T/C (dose: 400.0 mg/kg/injection, schedule: Q04DX003 (ip), vehicle: saline sonified): 95 % of control

SMILES: C[C@]1(O)CC[C@H]2[C@@H]3CCC4=CC(=O)CC[C@]4(C)[C@@]3(F)[C@@H](O)C[C@@]21C
- T/C [3]: 100 % of control
- T/C [4]: 95 % of control
- T/C (dose: 400.0 mg/kg/injection, schedule: Q04DX003 (ip), vehicle: Klucel (hydroxypropylcellulose) (HPC)): 95 % of control

SMILES: C/C(=C\C1C/C(=C/CCc2ccoc2)C(=O)O1)CCCc1ccoc1 (stereo unspecified)
- T/C (dose: 5.0 mg/kg/injection, schedule: Q01DX009 (ip), vehicle: other): 107 % of control
- T/C (dose: 20.0 mg/kg/injection, schedule: Q01DX009 (ip), vehicle: other): 106 % of control

SMILES: COc1cc(C)c(NC(=O)Oc2ccccc2)c(C)c1
- T/C [5]: 104 % of control
- T/C [6]: 104 % of control
- T/C [7]: 104 % of control

SMILES: O=C1OC(COCC#Cc2ccccc2)CN1c1ccccc1 (stereo unspecified)
- T/C [8]: 104 % of control
- T/C [9]: 92 % of control
- T/C [10]: 100 % of control
- T/C [11]: 107 % of control
- T/C (dose: 400.0 mg/kg/injection, schedule: Q01DX009 (ip), vehicle: saline with Tween-80): 100 % of control
- T/C (dose: 400.0 mg/kg/injection, schedule: Q04DX003 (ip), vehicle: saline): 92 % of control

SMILES: Cc1ccc(NC(=O)NCCCOc2ccc(N3C(N)=NC(N)=NC3(C)C)cc2Cl)cc1S(=O)(=O)F
- T/C (dose: 45.0 mg/kg/injection, schedule: Q04DX003 (ip), vehicle: saline): 100 % of control
- T/C (dose: 50.0 mg/kg/injection, schedule: Q01DX009 (ip), vehicle: saline): 155 % of control
- T/C (dose: 65.0 mg/kg/injection, schedule: Q04DX003 (ip), vehicle: saline): 109 % of control
- T/C (dose: 75.0 mg/kg/injection, schedule: Q01DX009 (ip), vehicle: saline): 150 % of control and 155 % of control
- T/C [9]: 122 % of control
- T/C (dose: 110.0 mg/kg/injection, schedule: Q01DX009 (ip), vehicle: saline): 160 % of control
- T/C (dose: 150.0 mg/kg/injection, schedule: Q01DX009 (ip), vehicle: saline): 90 % of control
- T/C [11]: 186 % of control

SMILES: COC1CC(OS(=O)(=O)c2ccc(C)cc2)C(O)C(C)O1 (stereo unspecified)
- T/C [1]: 98 % of control and 97 % of control
- T/C [8]: 100 % of control and 109 % of control
- T/C [5]: 99 % of control
- T/C [10]: 96 % of control and 103 % of control
- T/C [6]: 97 % of control
- T/C [7]: 96 % of control

SMILES: Cc1cc(Cl)ccc1NC(=O)N1c2ccccc2SC12CCCC2
- T/C [1]: 97 % of control
- T/C [8]: 91 % of control
- T/C [10]: 104 % of control

SMILES: Cc1ccc(C(=O)CCCCl)cc1C
- T/C [5]: 104 % of control
- T/C [6]: 104 % of control
- T/C [7]: 109 % of control

SMILES: CC(C)(C)c1cc([N+](=O)[O-])cc(C(C)(C)C)c1O
- T/C (dose: 25.0 mg/kg/injection, schedule: Q01DX009 (ip), vehicle: Klucel (hydroxypropylcellulose) (HPC)): 90 % of control and 100 % of control
- T/C (dose: 25.0 mg/kg/injection, schedule: Q04DX003 (ip), vehicle: Klucel (hydroxypropylcellulose) (HPC)): 100 % of control
- T/C [12]: 96 % of control and 109 % of control
- T/C (dose: 50.0 mg/kg/injection, schedule: Q04DX003 (ip), vehicle: Klucel (hydroxypropylcellulose) (HPC)): 86 % of control and 88 % of control
- T/C [13]: 95 % of control and 96 % of control
- T/C [3]: 86 % of control and 88 % of control
- T/C [4]: 92 % of control

SMILES: Oc1c(Cl)cc(Cl)cc1C1N2CCCCC2C2c3cccn3-c3ccccc3N21 (stereo unspecified)
- T/C [12]: 93 % of control
- T/C [13]: 90 % of control

SMILES: COC(=O)C1=C(C)NC(=O)NC1c1ccccc1 (stereo unspecified)
- T/C (dose: 100.0 mg/kg/injection, schedule: Q01DX001 (ip), vehicle: saline with Tween-80): 100 % of control
- T/C (dose: 200.0 mg/kg/injection, schedule: Q01DX001 (ip), vehicle: saline with Tween-80): 100 % of control
- T/C (dose: 400.0 mg/kg/injection, schedule: Q01DX001 (ip), vehicle: saline with Tween-80): 100 % of control

SMILES: CCC1C/C(=C2/NC3CCCCC3NC2=O)C(=O)O1 (stereo unspecified)
- T/C (dose: 25.0 mg/kg/injection, schedule: Q04DX002 (ip), vehicle: saline with Tween-80): 101 % of control
- T/C (dose: 50.0 mg/kg/injection, schedule: Q04DX002 (ip), vehicle: saline with Tween-80): 98 % of control
- T/C (dose: 100.0 mg/kg/injection, schedule: Q04DX002 (ip), vehicle: saline with Tween-80): 88 % of control

SMILES: COC1=C(N=[N+]=[N-])C(=O)C(OC)=C(N=[N+]=[N-])C1=O
- T/C (dose: 10.0 mg/kg/injection, schedule: Q04DX003 (ip), vehicle: saline): 100 % of control
- T/C (dose: 20.0 mg/kg/injection, schedule: Q04DX003 (ip), vehicle: saline): 100 % of control
- T/C (dose: 22.5 mg/kg/injection, schedule: Q01DX009 (ip), vehicle: saline): 114 % of control
- T/C (dose: 40.0 mg/kg/injection, schedule: Q04DX003 (ip), vehicle: saline): 108 % of control
- T/C (dose: 45.0 mg/kg/injection, schedule: Q01DX009 (ip), vehicle: saline): 123 % of control
- T/C (dose: 90.0 mg/kg/injection, schedule: Q01DX009 (ip), vehicle: saline): 114 % of control
- T/C (dose: 90.0 mg/kg/injection, schedule: Q04DX003 (ip), vehicle: saline): 122 % of control

SMILES: O=c1oc2ccccc2c2c1C(c1ccc3c(c1)OCO3)C=C(c1ccc3c(c1)OCO3)O2 (stereo unspecified)
- T/C (dose: 12.5 mg/kg/injection, schedule: Q01DX009 (ip), vehicle: water): 97 % of control
- T/C (dose: 25.0 mg/kg/injection, schedule: Q01DX009 (ip), vehicle: water): 104 % of control
- T/C (dose: 25.0 mg/kg/injection, schedule: Q04DX003 (ip), vehicle: water): 113 % of control
- T/C (dose: 50.0 mg/kg/injection, schedule: Q01DX009 (ip), vehicle: water): 101 % of control and 104 % of control
- T/C (dose: 50.0 mg/kg/injection, schedule: Q04DX003 (ip), vehicle: water): 116 % of control
- T/C (dose: 100.0 mg/kg/injection, schedule: Q01DX009 (ip), vehicle: water): 95 % of control
- T/C (dose: 100.0 mg/kg/injection, schedule: Q04DX003 (ip), vehicle: water): 103 % of control
- T/C (dose: 200.0 mg/kg/injection, schedule: Q01DX009 (ip), vehicle: water): 108 % of control and 123 % of control
- T/C (dose: 200.0 mg/kg/injection, schedule: Q04DX003 (ip), vehicle: water): 102 % of control and 111 % of control
- T/C (dose: 300.0 mg/kg/injection, schedule: Q01DX009 (ip), vehicle: water): 101 % of control
- T/C (dose: 300.0 mg/kg/injection, schedule: Q04DX003 (ip), vehicle: water): 102 % of control
- T/C (dose: 400.0 mg/kg/injection, schedule: Q01DX009 (ip), vehicle: water): 101 % of control
- T/C (dose: 400.0 mg/kg/injection, schedule: Q04DX003 (ip), vehicle: water): 119 % of control and 120 % of control
- T/C (dose: 500.0 mg/kg/injection, schedule: Q01DX009 (ip), vehicle: water): 118 % of control

SMILES: c1ccc(-c2c[se]nn2)cc1
- T/C (dose: 1.56 mg/kg/injection, schedule: Q01DX009 (ip), vehicle: saline + alcohol): 102 % of control
- T/C (dose: 3.13 mg/kg/injection, schedule: Q01DX009 (ip), vehicle: saline + alcohol): 100 % of control
- T/C (dose: 6.25 mg/kg/injection, schedule: Q01DX009 (ip), vehicle: saline + alcohol): 89 % of control
- T/C (dose: 6.25 mg/kg/injection, schedule: Q01DX009 (ip), vehicle: saline with Tween-80): 86 % of control

SMILES: NNC(=O)Cc1ccccc1
- T/C (dose: 25.0 mg/kg/injection, schedule: Q04DX003 (ip), vehicle: saline sonified): 110 % of control
- T/C (dose: 50.0 mg/kg/injection, schedule: Q04DX003 (ip), vehicle: saline sonified): 105 % of control
- T/C [2]: 110 % of control
